# Columns and labels:
# RAW264.7 cells = experiment: EFAD formation in activated RAW264.7 cells treated with inhibitors; format: cell-based, murine
# [1] = system: inducible nitric oxide synthase (iNOS); experiment: iNOS induction and nitrite accumulation in activated RAW264.7 cells; format: cell-based, murine; settings: RAW264.7 activated with Kdo2 and IFNγ
# Experimental: FIG. 11 illustrates modulation of anti-oxidant and inflammatory responses by 17-oxoDHA and 17-oxoDPA. RAW264.7 cells were treated with increasing concentration of 17-oxoDHA and 17-oxoDPA. (a) Cells were harvested 1 h after treatment and Nrf2 levels were quantified in nuclear extracts, (b) Cells were harvested 18 h after treatment and HO—I and Nqol (upper band) levels were measured by western blot, (c, d) RAW264.7 cells were treated with increasing concentration of 17-oxoDHA and 17-oxoDP A for 6 h and Kdo2+IFNγ were added. Samples were collected at 12 h. IL-6, MCP-I and IL-IO levels were measured in the cell media by Quantikine ELISA Kit (R&D Systems) and normalized by the total protein content (c); Nitrite levels were measured in the cell media and normalized by the total protein content and iNOS and Cox-2 levels were measured in total cell lysates (d); (e) PPARγ beta-lactamase reporter assays were performed for Rosiglitazone, 17-OxoDPA, 17-OxoDHA, 15d-PGJ2, 17-hydroxyDHA, DPA, and DHA with concentrations ranging from 0.5-10,000 nM.
# For activation experiments RAW 264.7 cells were seeded, incubated overnight, and treated at approximately 80% confluence with the indicated compounds 47. Non-activated controls were treated with vehicle alone. During activation, cells were maintained in an activation medium (SMEM) of Minimum Essential Medium Eagle (Cellgro, 17-305)+2% FBS supplemented with L-glutamine (584 mg/L), Na-pyruvate (110 mg/L) and Hepes (3.57 g/L, pH 7.4). For inhibition studies, inhibitors were added to the medium at the time of activation and MTT assays were used to confirm cell viability. Cells were harvested 20 h post activation (unless otherwise indicated) in 50 mM phosphate buffer (pH 7.4) and snap frozen in liquid N2. […]
# Protein concentrations of samples were measured by BCA assay (Pierce). […] Actin (detected by Sigma A2066) was used as loading control. […]
# (§1) Total nitrite and nitrate concentration was measured in cell culture media by Griess reaction using the Nitrate/Nitrite Colorimetric Assay Kit (Cayman Chemical).
# [2] = system: inducible nitric oxide synthase (iNOS); experiment: iNOS induction and nitrite accumulation in bone marrow-derived macrophages; format: cell-based, C57BL/6 mice; settings: BMDMs activated with Kdo2 and IFNγ
# Experimental: FIG. 24 illustrates that 17-oxoDHA and 7-oxoDPA modulate the inflammatory response. in bone marrow-derived macrophages. Cells were treated with increasing concentration of 17-oxoDHA and 17oxoDPA for 6 h and Kdo2 Lipid A (0.5 μg/ml) and IFNγ were added. Samples were collected at 12 h. (2) Nitrite levels were measured in the cell media and normalized to the total protein content: iNOS and COX-2 levels were measured in total cell lystaes. (b) IL-6, MCP-I, and IL-10 levels were measured in cell media and normalized to the total protein content.
# (§2) Bone marrow derived macrophages were isolated from C57BL/6 mice according to the protocol developed by Davies. See Davies, J. Q. & Gordon, S. Isolation and culture of murine macrophages. Methods Mol Biol 290, 91-103 (2005).
# Protein concentrations of samples were measured by BCA assay (Pierce). The following primary antibodies were used: Nrf2 (Santa Cruz, sc-722), HO—I (Assay Design, SPA-896), Nqol (Abeam, ab34173), Cox-2 (Santa Cruz, sc-1745), iNOS (BD Transduction Lab, 610332), Lamin Bl (Abeam, ab16048). Actin (detected by Sigma A2066) was used as loading control. Secondary antibodies were purchased from Santa Cruz Biotechnology.
# as §1
# NF-κB and Stat-1 = experiment: p65 nuclear translocation and DNA binding, Stat1 phosphorylation; format: cell-based, murine; settings: RAW264.7
# Source text: The expression of iNOS and the analyzed pro-inflammatory cytokines is dependent on the activity of NF-κB and Stat-1. It has been reported that electrophilic lipids can repress the activation of these transcriptional factors either by direct adduction to the DNA binding domain of the NF-K B subunit p65 and to the inhibitor IκBα or via indirect mechanisms.
# GAPDH = GAPDH (Oryctolagus cuniculus, UniProt P46406); experiment: In vitro alkylation of GAPDH, mass spectrometric analysis; format: biochemical, rabbit
# GAPDH, sequence (P46406 whole entry): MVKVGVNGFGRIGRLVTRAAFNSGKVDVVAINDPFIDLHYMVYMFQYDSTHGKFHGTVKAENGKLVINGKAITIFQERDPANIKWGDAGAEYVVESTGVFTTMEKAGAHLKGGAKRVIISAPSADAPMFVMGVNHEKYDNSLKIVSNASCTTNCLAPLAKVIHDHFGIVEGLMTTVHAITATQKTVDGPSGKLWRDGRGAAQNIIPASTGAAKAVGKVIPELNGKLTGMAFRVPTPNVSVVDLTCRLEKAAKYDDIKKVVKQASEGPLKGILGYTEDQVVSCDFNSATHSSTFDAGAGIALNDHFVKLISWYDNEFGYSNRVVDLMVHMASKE
# Source text: FIG. 21 illustrates the mass spectrometric analysis of an in vitro reaction of GAPDHvith EFAD-2. Four residues were detected and confirmed-as being targets for EfAD-2 in treated rabbit GAPDH. The peptides were alkylated as Cys244 (a), His163 (b), Cys149 (c) and His328 (d). Upper panels show EFAD-2 modified peptides and lower panels show spectra from corresponding native peptide.
# To more specifically test the binding of EFADs to nucleophilic residues in proteins, we tested whether GAPDH was alkylated by EFADs. This enzyme is a well-characterized target for electrophiles and becomes easily inactivated by nitrosylation, oxidation or nucleophilic addition.
# [3] = system: bone marrow-derived macrophage (BMDM) cells; experiment: EFAD formation in activated bone marrow-derived macrophages; format: cell-based, C57BL/6 murine; settings: BMDM activated with Kdo2 and IFNγ
# Experimental: FIG. 8 illustrates formation of EFAD in activated primary murine macrophages. Bone marrow derived macrophages were activated with Kdo2 (0.5 μg/ml) and IFNγ (200 U/ml) and EFADs were detected 1O h post activation.
# as §2
# EFADs are produced by primary macrophages isolated from mouse bone marrow. […] Thus, C57BL/6 murine primary hematopoietic stem cells were differentiated to macrophages, activated with Kdo2 and IFNγ and analyzed for the formation of EFADs. Five out of the six EFAD species (EFAD-I, 2, -3, -5 and -6) were observed which co-eluted with those produced by RAW 264.7 cells and with the available standards.
# Purified ovine COX-2 = biological target: T1, Purified ovine COX-2 (Ovis aries, UniProt P79208); experiment: COX-2 reaction with DPA ± ASA, OH-DPA formation; format: biochemical; settings: ovine COX-2 + DPA 10 μM ± 2 mM ASA
# T1 construct: Ovine placental COX-2 (Cayman 60120) was also from Cayman Chemicals; purchased Cayman Chemicals 60120; host or cells: ovine placenta
# T1 sequence (P79208 17-603): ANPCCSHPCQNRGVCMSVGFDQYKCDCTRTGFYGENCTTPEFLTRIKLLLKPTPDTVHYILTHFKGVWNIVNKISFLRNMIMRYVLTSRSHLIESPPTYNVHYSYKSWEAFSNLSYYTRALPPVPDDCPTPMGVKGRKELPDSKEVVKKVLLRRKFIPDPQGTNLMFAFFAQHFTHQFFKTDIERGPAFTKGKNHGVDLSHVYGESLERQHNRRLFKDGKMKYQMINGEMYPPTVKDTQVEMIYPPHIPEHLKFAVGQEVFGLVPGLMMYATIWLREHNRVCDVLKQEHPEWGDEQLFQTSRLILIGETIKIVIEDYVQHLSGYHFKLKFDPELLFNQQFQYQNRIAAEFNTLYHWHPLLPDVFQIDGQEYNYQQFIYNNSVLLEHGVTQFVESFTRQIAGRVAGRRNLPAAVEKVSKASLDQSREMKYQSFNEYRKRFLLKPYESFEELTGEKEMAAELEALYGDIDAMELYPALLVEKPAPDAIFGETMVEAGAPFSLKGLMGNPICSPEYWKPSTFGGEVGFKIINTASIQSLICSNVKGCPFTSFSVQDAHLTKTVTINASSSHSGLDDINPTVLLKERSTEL
# Experimental: The results of the COX-2 inhibition study implicate a the involvement of COX-2 in EFAD formation and motivated the development of an in vitro model of enzymatic EFAD synthesis. Purified ovine COX-2 was used to generate the EFAD-2 precursor (OH-DPA), (FIG. 7c-e), while the EFAD-I precursor, hydroxy-DHA (OH-DHA), was produced from DHA by COX-2 (FIGS. 19a and 19b).
# Ovine placental COX-2 (20 U/ml) was preincubated in Tris/heme/phenol (THP) buffer ±2 mM ASA at 37° C. THP buffer, freshly prepared before each reaction, consisted of Tris*C1 (100 mM, pH 8.1), hematin (1 μM), and phenol (1 μM). The reaction was initiated by addition of the indicated fatty acids at a concentration of 10 μM. Reactions were terminated at the indicated time points by addition of ice-cold acetonitrile (9× reaction volume) and COX-2 protein was removed by centrifugation. Product formation was monitored by RP-HPLC-MS/MS in multiple reaction monitoring (MRM) mode following the loss Of CO2 (m/z 345/301 and m/z 343/299 for OH-DPA and OH-DHA, respectively).
"p65 nuclear translocation and DNA binding, Stat1 phosphorylation (NF-κB and Stat-1)",Compound,"EFAD level +Celecoxib (↓COX) (RAW264.7 cells; RAW264.7 activated with Kdo2 and IFNγ, 20 h post activation)","EFAD level +Aspirin (↓COX) (RAW264.7 cells; RAW264.7 activated with Kdo2 and IFNγ, ASA 200 μM, 20 h post activation)","EFAD level +ETYA (↓COX) (RAW264.7 cells; RAW264.7 activated with Kdo2 and IFNγ, ETYA 25 μM, 20 h post activation)","EFAD level +MAFP (↓PLA2) (RAW264.7 cells; RAW264.7 activated with Kdo2 and IFNγ, MAFP 25 μM, 20 h post activation)","EFAD level +Diclofenac (↓COX) (RAW264.7 cells; RAW264.7 activated with Kdo2 and IFNγ, diclofenac 1 μM, 20 h post activation)","EFAD level +Genisteine (RAW264.7 cells; RAW264.7 activated with Kdo2 and IFNγ, genistein 25 μM, 20 h post activation)","EFAD level +Ibuprofen (↓COX) (RAW264.7 cells; RAW264.7 activated with Kdo2 and IFNγ, ibuprofen 100 μM, 20 h post activation)","EFAD level +Indomethacin (↓COX) (RAW264.7 cells; RAW264.7 activated with Kdo2 and IFNγ, indomethacin 25 μM, 20 h post activation)",iNOS induction and accumulation of nitrite in the cell media [1],iNOS induction and accumulation of nitrite in the cell media [2],adduct formation with GAPDH residues (GAPDH),"increase of EFAD formation (RAW264.7 cells; ASA 200 μM, all EFADs except EFAD-4 and EFAD-6)",extent of EFAD formation with ASA [3],rate and extent of formation of OH-DPA (Purified ovine COX-2)
did not affect,CCC=CCC=CC=CC(=O)CC=CCC=CCCCCCC(=O)O (mixture of isomers) [EFAD-2],↓,↑,↓,↓,↓,↓,↓,↓,strongly and dose-dependently repressed,strongly and dose-dependently repressed,"readily formed adducts with Cys244, Cys149, His 163 and His328",,,
,"CC(=O)Oc1ccccc1C(=O)O [ASA, acetyl salicylic acid]",,,,,,,,,,,,about 2.5 fold,increased about two to three fold,increased the rate and extent of formation

# From patent publication US20150018417A1, “FATTY ACIDS AS ANTI-INFLAMMATORY AGENTS” (University of Pittsburgh - Of the Commonwealth System of …, priority 2012, published 2015)
